Here are results for one substance from patent US10358469B2, “Methods and pharmaceutical compositions for the treatment of cancer” (INSERM (INSTITUT NATIONAL DE LA SANTÉ ET DE LA RECHERCHE …, priority 2014, dated 2019).

One data set concerns HaCat cells. Briefly: Lactate dehydrogenase (LDH) release, HaCat cells. Format: cell-based. Conditions: 10 μM, FIG. 4B. On the procedure:
FIG. 4: Antp-AAC-11-LZ (363-399) peptide induced necrotic cell death under low serum conditions. (A) SeAx or HaCat cells cultured in the absence of 10% FBS were left untreated or treated with 4 μM or 10 μM, respectively, of the Antp-AAC-11-LZ (363-399) peptide for the indicated durations. Cells were then analyzed by flow cytometry for PI staining. The results represent the mean number of PI-positive cells±S.D. from at least three independent experiments. (B) A549 and HaCat cells were plated at a densities of 4.5×10^3 in 96 well plates (100 μL total volume per well) and allowed to attach overnight in a 37° C. incubator (5% CO2). […] Lactate dehydrogenase (LDH) activity released in the culture medium was then assessed and data expressed as a percentage of the maximal level (Max) of LDH activity determined after total cell lysis±S.D. from at least three independent experiments.
Cytoplasmic lactate dehydrogenase (LDH) release into the cell culture supernatant occurs upon damage of the plasma membrane, and it is therefore considered a typical hallmark of necrosis. […] LDH activity was measured using the CytoTox 96® assay (Promega) by the reduction of lactate to pyruvate in the presence of NAD^+. […] Visible wavelength absorbance data are collected using a standard 96-well plate reader. […]
Necrosis was further assessed based on lactate dehydrogenase (LDH) activity release in the culture medium. […]

Another data set deals with A549 cells. Briefly: Lactate dehydrogenase (LDH) release, A549 cells. Conditions: 10 μM. Format: cell-based, human. On the procedure:
(A) SeAx or HaCat cells cultured in the absence of 10% FBS were left untreated or treated with 4 μM or 10 μM, respectively, of the Antp-AAC-11-LZ (363-399) peptide for the indicated durations. Cells were then analyzed by flow cytometry for PI staining. The results represent the mean number of PI-positive cells±S.D. from at least three independent experiments. (B) A549 and HaCat cells were plated at a densities of 4.5×10^3 in 96 well plates (100 μL total volume per well) and allowed to attach overnight in a 37° C. incubator (5% CO2). Media was removed from cells and replaced with media containing 10 μM Antp-AAC-11-LZ (363-399) peptide (100 μL total volume per well) peptide and the plates were incubated for the indicated durations. Lactate dehydrogenase (LDH) activity released in the culture medium was then assessed and data expressed as a percentage of the maximal level (Max) of LDH activity determined after total cell lysis±S.D. from at least three independent experiments.
(A) SeAx cultured in the absence of 10% FBS were left untreated or treated with 4 μM of the indicated Antp-AAC-11-LZ peptides for various times. Cells were then analyzed by flow cytometry for PI staining. The results represent the mean number of PI-positive cells±S.D. (B) A549 cells were plated at a densities of 4.5×10^3 in 96 well plates (100 μL total volume per well) and allowed to attach overnight in a 37° C. incubator (5% CO2). Media was removed from cells and replaced with media containing the indicated Antp-AAC-11-LZ peptides at 10 μM (100 μL total volume per well) peptide and the plates were incubated for the indicated durations. Lactate dehydrogenase (LDH) activity released in the culture medium was then assessed and data expressed as a percentage of the maximal level (Max) of LDH activity determined after total cell lysis±S.D.

With “Ac-RQIKIWFKKQNRRMKWKKAKLNAEKLKDFKIRLQYFARGLQVYIRQLRLALQGKT-NH2 [Antp-AAC-11-LZ (363-399)]”, in the data set on HaCat cells, the “LDH release in nonmalignant cells” value is “little LDH release”. Besides, the LDH release with A549 cells (5 minutes, relative to maximal LDH release (0.8% Triton X-100)) is approximately 40%; in the data set with A549 cells (1 hour, compared to maximum LDH release (0.8% Triton X-100)) it was 80%. The “LDH release into cell supernatants, in words” value in the data set with A549 cells (time course) is reported as “drastic increase”.
